Experimental data as given in publication PMC6639057 (Investigational new drugs, 2018).

Tested on: patients with advanced solid tumors
Assay: Adverse events
[1] = escalation 35 mg + G-CSF (n = 3)
[2] = escalation 40 mg + G-CSF (n = 11)
[3] = escalation 50 mg + G-CSF (n = 4)
[4] = escalation 1, 2, 4, 8 mg (n = 4)
[5] = expansion 40 mg + G-CSF, CRPC (n = 12)
[6] = expansion 40 mg + G-CSF, OC (n = 29)
[7] = expansion 40 mg + G-CSF, TNBC (n = 14)

SMILES: Cc1csc(-c2nnc(Nc3ccc(Oc4ncccc4-c4ccnc(N)n4)cc3)c3ccccc23)c1 [AMG 900]
- All treatment-related AEs [1]: 3 (100) n (%)
- Fatal AEs [1]: 0 n (%)
- Grade ≥ 3 AEs [1]: 2 (67) n (%)
- Grade ≥ 3 treatment-related AEs [1]: 2 (67) n (%)
- Grade ≥ 3 treatment-related AEs: Anemia [1]: 0 n (%)
- Grade ≥ 3 treatment-related AEs: Diarrhea [1]: 0 n (%)
- Grade ≥ 3 treatment-related AEs: Fatigue [1]: 0 n (%)
- Grade ≥ 3 treatment-related AEs: Febrile neutropenia [1]: 0 n (%)
- Grade ≥ 3 treatment-related AEs: Hemoglobin decreased [1]: 0 n (%)
- Grade ≥ 3 treatment-related AEs: Leukopenia [1]: 1 (33) n (%)
- Grade ≥ 3 treatment-related AEs: Lymphopenia [1]: 0 n (%)
- Grade ≥ 3 treatment-related AEs: Nausea [1]: 0 n (%)
- Grade ≥ 3 treatment-related AEs: Neutropenia [1]: 1 (33) n (%)
- Grade ≥ 3 treatment-related AEs: Thrombocytopenia [1]: 0 n (%)
- Grade ≥ 3 treatment-related AEs: Vomiting [1]: 1 (33) n (%)
- Grade ≥ 3 treatment-related AEs: White blood cell count decreased [1]: 0 n (%)
- Grade ≥ 4 AEs [1]: 1 (33) n (%)
- Serious AEs [1]: 1 (33) n (%)
- AEs leading to discontinuation of AMG 900 [2]: 2 (18) n (%)
- All treatment-emergent AEs [2]: 11 (100) n (%)
- All treatment-related AEs [2]: 10 (91) n (%)
- Fatal AEs [2]: 0 n (%)
- Grade ≥ 3 AEs [2]: 8 (73) n (%)
- Grade ≥ 3 treatment-related AEs [2]: 6 (55) n (%)
- Grade ≥ 3 treatment-related AEs: Anemia [2]: 0 n (%)
- Grade ≥ 3 treatment-related AEs: Diarrhea [2]: 2 (18) n (%)
- Grade ≥ 3 treatment-related AEs: Fatigue [2]: 0 n (%)
- Grade ≥ 3 treatment-related AEs: Febrile neutropenia [2]: 2 (18) n (%)
- Grade ≥ 3 treatment-related AEs: Hemoglobin decreased [2]: 0 n (%)
- Grade ≥ 3 treatment-related AEs: Leukopenia [2]: 1 (9) n (%)
- Grade ≥ 3 treatment-related AEs: Lymphopenia [2]: 1 (9) n (%)
- Grade ≥ 3 treatment-related AEs: Nausea [2]: 0 n (%)
- Grade ≥ 3 treatment-related AEs: Neutropenia [2]: 5 (46) n (%)
- Grade ≥ 3 treatment-related AEs: Thrombocytopenia [2]: 1 (9) n (%)
- Grade ≥ 3 treatment-related AEs: Vomiting [2]: 0 n (%)
- Grade ≥ 3 treatment-related AEs: White blood cell count decreased [2]: 0 n (%)
- Grade ≥ 4 AEs [2]: 4 (36) n (%)
- Serious AEs [2]: 3 (27) n (%)
- AEs leading to discontinuation of AMG 900 [3]: 2 (50) n (%)
- All treatment-emergent AEs [3]: 4 (100) n (%)
- All treatment-related AEs [3]: 4 (100) n (%)
- Fatal AEs [3]: 1 (25) n (%)
- Grade ≥ 3 AEs [3]: 3 (75) n (%)
- Grade ≥ 3 treatment-related AEs [3]: 3 (75) n (%)
- Grade ≥ 3 treatment-related AEs: Anemia [3]: 1 (25) n (%)
- Grade ≥ 3 treatment-related AEs: Diarrhea [3]: 0 n (%)
- Grade ≥ 3 treatment-related AEs: Fatigue [3]: 2 (50) n (%)
- Grade ≥ 3 treatment-related AEs: Febrile neutropenia [3]: 1 (25) n (%)
- Grade ≥ 3 treatment-related AEs: Hemoglobin decreased [3]: 0 n (%)
- Grade ≥ 3 treatment-related AEs: Leukopenia [3]: 1 (25) n (%)
- Grade ≥ 3 treatment-related AEs: Lymphopenia [3]: 0 n (%)
- Grade ≥ 3 treatment-related AEs: Nausea [3]: 0 n (%)
- Grade ≥ 3 treatment-related AEs: Neutropenia [3]: 1 (25) n (%)
- Grade ≥ 3 treatment-related AEs: Thrombocytopenia [3]: 1 (25) n (%)
- Grade ≥ 3 treatment-related AEs: Vomiting [3]: 0 n (%)
- Grade ≥ 3 treatment-related AEs: White blood cell count decreased [3]: 0 n (%)
- Grade ≥ 4 AEs [3]: 2 (50) n (%)
- Serious AEs [3]: 2 (50) n (%)
- AEs leading to discontinuation of AMG 900 [4]: 0 n (%)
- All treatment-emergent AEs [4]: 4 (100) n (%)
- All treatment-related AEs [4]: 3 (75) n (%)
- Fatal AEs [4]: 0 n (%)
- Grade ≥ 3 AEs [4]: 1 (25) n (%)
- Grade ≥ 3 treatment-related AEs [4]: 1 (25) n (%)
- Grade ≥ 3 treatment-related AEs: Anemia [4]: 1 (25) n (%)
- Grade ≥ 3 treatment-related AEs: Diarrhea [4]: 0 n (%)
- Grade ≥ 3 treatment-related AEs: Fatigue [4]: 0 n (%)
- Grade ≥ 3 treatment-related AEs: Febrile neutropenia [4]: 0 n (%)
- Grade ≥ 3 treatment-related AEs: Hemoglobin decreased [4]: 0 n (%)
- Grade ≥ 3 treatment-related AEs: Leukopenia [4]: 0 n (%)
- Grade ≥ 3 treatment-related AEs: Lymphopenia [4]: 0 n (%)
- Grade ≥ 3 treatment-related AEs: Nausea [4]: 0 n (%)
- Grade ≥ 3 treatment-related AEs: Neutropenia [4]: 0 n (%)
- Grade ≥ 3 treatment-related AEs: Thrombocytopenia [4]: 0 n (%)
- Grade ≥ 3 treatment-related AEs: Vomiting [4]: 0 n (%)
- Grade ≥ 3 treatment-related AEs: White blood cell count decreased [4]: 0 n (%)
- Grade ≥ 4 AEs [4]: 0 n (%)
- Serious AEs [4]: 0 n (%)
- AEs leading to discontinuation of AMG 900 [5]: 3 (25) n (%)
- All treatment-emergent AEs [5]: 12 (100) n (%)
- All treatment-related AEs [5]: 12 (100) n (%)
- Fatal AEs [5]: 0 n (%)
- Grade ≥ 3 AEs [5]: 9 (75) n (%)
- Grade ≥ 3 treatment-related AEs [5]: 6 (50) n (%)
- Grade ≥ 3 treatment-related AEs: Anemia [5]: 2 (17) n (%)
- Grade ≥ 3 treatment-related AEs: Diarrhea [5]: 0 n (%)
- Grade ≥ 3 treatment-related AEs: Fatigue [5]: 2 (17) n (%)
- Grade ≥ 3 treatment-related AEs: Febrile neutropenia [5]: 0 n (%)
- Grade ≥ 3 treatment-related AEs: Hemoglobin decreased [5]: 1 (8) n (%)
- Grade ≥ 3 treatment-related AEs: Leukopenia [5]: 0 n (%)
- Grade ≥ 3 treatment-related AEs: Lymphopenia [5]: 1 (8) n (%)
- Grade ≥ 3 treatment-related AEs: Nausea [5]: 2 (17) n (%)
- Grade ≥ 3 treatment-related AEs: Neutropenia [5]: 3 (25) n (%)
- Grade ≥ 3 treatment-related AEs: Thrombocytopenia [5]: 1 (8) n (%)
- Grade ≥ 3 treatment-related AEs: Vomiting [5]: 0 n (%)
- Grade ≥ 3 treatment-related AEs: White blood cell count decreased [5]: 0 n (%)
- Grade ≥ 4 AEs [5]: 2 (17) n (%)
- Serious AEs [5]: 4 (33) n (%)
- AEs leading to discontinuation of AMG 900 [6]: 5 (17) n (%)
- All treatment-emergent AEs [6]: 29 (100) n (%)
- All treatment-related AEs [6]: 28 (97) n (%)
- Fatal AEs [6]: 0 n (%)
- Grade ≥ 3 AEs [6]: 25 (86) n (%)
- Grade ≥ 3 treatment-related AEs [6]: 22 (76) n (%)
- Grade ≥ 3 treatment-related AEs: Anemia [6]: 12 (41) n (%)
- Grade ≥ 3 treatment-related AEs: Diarrhea [6]: 1 (3) n (%)
- Grade ≥ 3 treatment-related AEs: Fatigue [6]: 1 (3) n (%)
- Grade ≥ 3 treatment-related AEs: Febrile neutropenia [6]: 6 (21) n (%)
- Grade ≥ 3 treatment-related AEs: Hemoglobin decreased [6]: 2 (7) n (%)
- Grade ≥ 3 treatment-related AEs: Leukopenia [6]: 3 (10) n (%)
- Grade ≥ 3 treatment-related AEs: Lymphopenia [6]: 1 (3) n (%)
- Grade ≥ 3 treatment-related AEs: Nausea [6]: 0 n (%)
- Grade ≥ 3 treatment-related AEs: Neutropenia [6]: 17 (59) n (%)
- Grade ≥ 3 treatment-related AEs: Thrombocytopenia [6]: 6 (21) n (%)
- Grade ≥ 3 treatment-related AEs: Vomiting [6]: 1 (3) n (%)
- Grade ≥ 3 treatment-related AEs: White blood cell count decreased [6]: 2 (7) n (%)
- Grade ≥ 4 AEs [6]: 12 (41) n (%)
- Serious AEs [6]: 14 (48) n (%)
- AEs leading to discontinuation of AMG 900 [7]: 5 (36) n (%)
- All treatment-emergent AEs [7]: 14 (100) n (%)
- All treatment-related AEs [7]: 13 (93) n (%)
- Fatal AEs [7]: 3 (21) n (%)
- Grade ≥ 3 AEs [7]: 11 (79) n (%)
- Grade ≥ 3 treatment-related AEs [7]: 6 (43) n (%)
- Grade ≥ 3 treatment-related AEs: Anemia [7]: 4 (29) n (%)
- Grade ≥ 3 treatment-related AEs: Diarrhea [7]: 1 (7) n (%)
- Grade ≥ 3 treatment-related AEs: Fatigue [7]: 0 n (%)
- Grade ≥ 3 treatment-related AEs: Febrile neutropenia [7]: 1 (7) n (%)
- Grade ≥ 3 treatment-related AEs: Hemoglobin decreased [7]: 0 n (%)
- Grade ≥ 3 treatment-related AEs: Leukopenia [7]: 0 n (%)
- Grade ≥ 3 treatment-related AEs: Lymphopenia [7]: 0 n (%)
- Grade ≥ 3 treatment-related AEs: Nausea [7]: 1 (7) n (%)
- Grade ≥ 3 treatment-related AEs: Neutropenia [7]: 4 (29) n (%)
- Grade ≥ 3 treatment-related AEs: Thrombocytopenia [7]: 1 (7) n (%)
- Grade ≥ 3 treatment-related AEs: Vomiting [7]: 0 n (%)
- Grade ≥ 3 treatment-related AEs: White blood cell count decreased [7]: 0 n (%)
- Grade ≥ 4 AEs [7]: 5 (36) n (%)
- Serious AEs [7]: 7 (50) n (%)
